The text below walks through data of EP0478445B1, “Composition for cleaning and decontaminating, in particular surgical instruments” (priority 1990, dated 1992).

Where only a bound is given, the exact number is not on record here.

Series [1] can be described thus: Characteristics of the ingredients (pH, solubility). In kind it is physicochemical.
Another series concerns homme. Particulars: cited from earlier work.
Series [2] is described as follows: Irritancy of the ingredient.

As for `CCCCCCCCC=CCCCCCCCC1=NCCN1CCO` [1-hydroxyéthyl-2-heptadécényl-imidazoline], in series [1], the solubilité result is listed as “soluble dans la plupart des solvants polaires et apolaires”. `C=O` [formaldéhyde]: in the series on homme (man, inhalation), the “larmoiements (inhalation)” value is listed as ≥ 0,1 ppm and the oedème pulmonaire is reported as 50 ppm. The irritation oculaire superficielle in the series with homme (some exposed persons) is recorded as ≥ 0,4 ppm. As to `CCCCCCCCCCCC[N+](C)(C)CC(=O)[O-]` [lauryldiméthylcarboxyméthylammonium bétaine], the “irritation des muqueuses et des yeux” value in series [2] is recorded as “n'irrite ni les muqueuses ni les yeux”. As to “N|N'(N"-2-hydroxyéthyl-N"-carboxyéthylaminoéthyl) amidoacétate|-N,N-diméthyl-N-coco-ammoniumbétaine”, in series [1], the solubilité result is “soluble de façon limpide dans l'eau, l'éthanol, l'isopropanol”. For the same compound, the “pH (à 10%)” value in series [1] (at 10%) is 8-9.
